Values of other authors, collected in patent publication US20110300245A1, “Topical, palatable, anti-inflammatory and analgesic for specific application to intraoral, gingival and extraoral areas correlated with, and related to, the trigeminal nerve and its nerve branches and plexus. To mitigate, attenuate or prevent migraine-type headache, cluster-type headache, …” (priority 2010, published 2011).
Read-outs that look alike come from different tables or passages of the source.

How the values were obtained:
[1] = rheumatoid arthritis patients
[2] = system: peripheral nerve C fibers; settings: laboratory studies
[3] = in vivo
[4] = for patients with symptoms controlled within 2 weeks: added orally to the sulfasalazine/prednisolone regimen, allopurinol 50 mg or DMSO 500 mg four times a day, p<0.01
[5] = not given; remark: listed apart in the source
[6] = not given; remark: listed apart in the source
[7] = intravesical, 213 patients
[8] = not given; remark: listed apart in the source
[9] = not given; remark: listed apart in the source
cell proliferation = settings: in vitro
[10] = given with sulfasalazine 2 gm daily, p<0.05

Structure (SMILES): C[S+](C)[O-] [DMSO, dimethyl sulfoxide]
- effects on joint pain, range of joint motion and grip strength [1]: analgesic and anti-inflammatory effects
- nerve conduction [2]: blocking peripheral nerve C fibers
- edema in animals [3]: reduction of edema
- relief of pain in rheumatoid arthritis (27 patients with rheumatoid arthritis): all but four had some degree of relief of pain
- pain relief (103 patients, topical application): pain relief of varying degrees in most patients
- time to pain relief after application (DMSO 1.0 ml, five patients with acute supraspinatus tendon pain associated with calcification): ≤ 10 min
- symptomatic relief (all six patients with acute calcified supraspinatus bursitis): Spectacular symptomatic relief
- recovery with normal use of the shoulder (continued applications every four hours over the following 24 hour period): complete recovery
- patients with symptoms controlled within 2 weeks [4]: 84%
- patients relapsed during 12 months of prophylactic treatment [4, 10]: 5%
- number of patients with normal ICP ([5]; after 6 days of treatment, ten patients): 7
- ICP after 24 h ([5]; intravenous every 6 h, all ten patients, ICP 40-127 mm Hg): reduction of ICP
- neurological outcome ([5]; severe closed-head injury patients, intravenous): improves neurological outcome
- patients showing improvement ([6]; acute patients): 80%
- patients showing improvement ([6]; chronic patients): 60%
- systemic or local toxicity [7]: no systemic or local toxicity
- symptomatic relief ([7]; majority of patients): Significant symptomatic relief

Structure (SMILES): CC(C(=O)O)c1cccc(C(=O)c2ccccc2)c1 (stereo not shown) [Ketoprofen]
- side effects ([8]; 30-day treatment phase): minimal
- average monthly headache burden score (intensity 0-10 x duration in hours) ([8]; 30-day treatment phase, gel once daily, 20 patients, 30-day baseline 454.8, p<0.001): 86.5
- analgesic and headache medication intake ([8]; treatment phase versus baseline): significantly reduced

Structure (SMILES): Oc1ncnc2[nH]ncc12 [allopurinol]
- patients with symptoms controlled within 2 weeks [4]: 84%
- patients relapsed during 12 months of prophylactic treatment [4, 10]: 5%

Structure (SMILES): O=C(O)c1cc(/N=N/c2ccc(S(=O)(=O)Nc3ccccn3)cc2)ccc1O [sulfasoizine, sulfasalazine]
- patients relapsed during 12 months of prophylactic treatment ([4]; sulfasalazine 2 gm daily alone): 25%

Structure (SMILES): CNS(=O)(=O)Cc1ccc2[nH]cc(CCN(C)C)c2c1 [sumatriptan]
- mean headache relief (0-10 scale) ([9]; 50 mg oral, at 1, 2, 4, and 24 hours after initiation of treatment): Significant mean headache relief
- nausea relief ([9]; 50 mg oral, same post treatment time intervals (1, 2, 4, 24 hours)): Significant nausea relief
- headache and nausea recurrence ([9]; at 24 hours): some headache and nausea recurrence

Structure (SMILES): O=C(O)C[C@H](O)C(=O)OC[C@H]1OC(O)[C@H](O)[C@@H](O)[C@@H]1O[C@H]1O[C@H](CO)[C@@H](O)[C@H](O)[C@H]1O (stereo partly drawn) [veracylglucan B, alpha-D-Glcp-(1-->4)-6-O-(1-L-maloyl)-alpha,-beta,-D-Glcp]
- anti-inflammatory activity and effect on cell proliferation (cell proliferation): potent anti-inflammatory and anti-proliferative effects

Structure (SMILES): O=C(O)C[C@H](O)C(=O)OC[C@H]1O[C@H](O[C@H]2[C@H](O)[C@@H](O)[C@@H](O[C@H]3[C@H](O)[C@@H](O)[C@@H](O[C@H]4[C@H](O)[C@@H](O)[C@@H](O[C@H]5[C@H](O)[C@@H](O)C(O)O[C@@H]5COC(=O)[C@@H](O)CC(=O)O)O[C@@H]4COC(=O)[C@@H](O)CC(=O)O)O[C@@H]3COC(=O)[C@@H](O)CC(=O)O)O[C@@H]2COC(=O)[C@@H](O)CC(=O)O)[C@H](O)[C@@H](O)[C@@H]1O[C@H]1O[C@H](CO)[C@@H](O)[C@H](O)[C@H]1O (stereo partly drawn) [veracylglucan C, alpha-D-Glcp-(1-->4)-tetra-[6-O-(1-L-maloyl)-alpha-D-Glcp-(1-->4)]-6-O-(1-L-maloyl)-alpha,-beta-D-Glcp]
- anti-inflammatory activity and effect on cell proliferation (cell proliferation): significant cell proliferative and anti-inflammatory activities
